Data reported in patent US20240368122A1, “JAK2 INHIBITORS AND METHODS OF USE THEREOF” (RELAY THERAPEUTICS, INC., priority 2021, published 2024).

Tests used:
[1] = tested on: TF1 JAK2 V617F STAT5 reporter; assay: Cellular TF1 STAT5 assay (luciferase reporter), JAK2 V617F; format: cell-based; conditions: TF1 JAK2 V617F, read-out: Cell PD TF1 V617F STAT5 (IC50)
Procedure, shortened: (§1)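 Inhibition of JAK2 V617F-mediated STAT3/STAT5 signalling is measured by reporter luminescence in TF1 erythroleukemia cells treated overnight (18-20 h) with a 10-point compound series; DMSO serves as vehicle.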

[2] = target: T1, JAK2 JH2 WT (V536-D812) [W659A, W777A, F794H solubilizing mutations] (Homo sapiens, UniProt O60674, F794H/W659A/W777A); assay: Surface Plasmon Resonance (SPR) binding assay, JAK2 JH2 domain; conditions: SPR, JAK2 JH2 domain
T1 construct: **JAK2 JH2 WT (V536-D812) [W659A, W777A, F794H solubilizing mutations]; C-thrombin-avi-His6; thrombin cleavage site (C); His6 (C); purchased Biortus
Procedure, shortened: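 Kinetics came from 1:1 fits of single-cycle runs at 20 °C: four 3-fold dilutions from 5 uM for JH1 or 500 nM for JH2, 60 s association, and 300 s or 1200 s dissociation respectively. Protein was freshly captured per compound in the presence of 10 uM stabilizer compound, with running buffer of pH 7.5 HEPES/NaCl/glycerol/DTT plus 2% DMSO.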

[3] = tested on: TF1 JAK2 V617F STAT3 reporter; assay: Cellular TF1 STAT3 assay (luciferase reporter), JAK2 V617F; format: cell-based; conditions: TF1 JAK2 V617F, read-out: Cell PD-TF1 JAK2 V617F STAT3 (IC50)
Procedure, shortened: as §1

T1 sequence (O60674 536-812 W659A/W777A/F794H): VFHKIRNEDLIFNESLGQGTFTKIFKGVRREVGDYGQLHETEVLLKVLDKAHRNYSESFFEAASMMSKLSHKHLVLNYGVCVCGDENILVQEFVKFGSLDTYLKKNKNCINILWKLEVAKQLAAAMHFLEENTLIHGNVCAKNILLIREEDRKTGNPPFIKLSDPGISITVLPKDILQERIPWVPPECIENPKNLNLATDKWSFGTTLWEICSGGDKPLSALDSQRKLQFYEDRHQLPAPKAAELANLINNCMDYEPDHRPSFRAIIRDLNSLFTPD

SMILES | IC50 [1] [nM] | Kd [2] [nM] | IC50 [3] [nM]
CNC(=O)c1nnc(NC(=O)C2CC2)cc1Nc1cccc(-c2ccc(C(=O)N(C)Cc3ccns3)nc2)c1OC [Compound 59] | 5000 to 100000 | 0.01 to 10 | 500 to 5000
CNC(=O)c1nnc(NC(=O)C2CC2)cc1Nc1cccc(-c2ccc(C(=O)N(C)Cc3cncs3)nc2)c1OC [Compound 60] | 5000 to 100000 | 10 to 50 | 500 to 5000
CNC(=O)c1nnc(NC(=O)C2CC2)cc1Nc1cccc(-c2ccc(C(=O)N(C)Cc3ccccc3C(C)C)nc2)c1OC [Compound 81] | 500 to 5000 | 10 to 50 | 500 to 5000
CNC(=O)c1nnc(NC(=O)C2CC2)cc1Nc1cccc(-c2ccc(C(=O)N(C)Cc3cc(Cl)ccc3OC)nc2)c1OC [Compound 82] | 500 to 5000 | 0.01 to 10 | 500 to 5000
CCOc1ccccc1CN(C)C(=O)c1ccc(-c2cccc(Nc3cc(NC(=O)C4CC4)nnc3C(=O)NC)c2OC)cn1 [Compound 83] | 500 to 5000 | 0.01 to 10 | 500 to 5000
CNC(=O)c1nnc(NC(=O)C2CC2)cc1Nc1cccc(-c2ccc(C(=O)N(C)Cc3cn4c(n3)CCCC4)nc2)c1OC [Compound 84] | 5000 to 100000 | 10 to 50 | 500 to 5000
CNC(=O)c1nnc(NC(=O)C2CC2)cc1Nc1cccc(-c2ccc(C(=O)N(C)Cc3ccc(OC(F)F)cc3)nc2)c1OC [Compound 85] | 500 to 5000 | 0.01 to 10 | 500 to 5000
CNC(=O)c1nnc(NC(=O)C2CC2)cc1Nc1cccc(-c2ccc(C(=O)N(C)Cc3cn(C)cn3)nc2)c1OC [Compound 86] | 500 to 5000 | 0.01 to 10 | 500 to 5000
CNC(=O)c1nnc(NC(=O)C2CC2)cc1Nc1cccc(-c2cnn(C3CN(Cc4cc(OC)ccn4)C3)c2)c1OC [Compound 88] | 500 to 5000 | 0.01 to 10 | 500 to 5000
CNC(=O)c1nnc(NC(=O)C2CC2)cc1Nc1cccc(-c2cnn(C3CN(Cc4ccccc4F)C3)c2)c1OC [Compound 90] | 500 to 5000 | 0.01 to 10 | 500 to 5000
CNC(=O)c1nnc(NC(=O)C2CC2)cc1Nc1cccc(-c2cnn(C3CN(Cc4cccc(F)c4)C3)c2)c1OC [Compound 91] | 500 to 5000 | 0.01 to 10 | 500 to 5000
CNC(=O)c1nnc(NC(=O)C2CC2)cc1Nc1cccc(-c2ccc(C(=O)N(C)Cc3ccc(N(C)C)nc3)nc2)c1OC [Compound 93] | 500 to 5000 | 10 to 50 | 500 to 5000
CNC(=O)c1nnc(NC(=O)C2CC2)cc1Nc1cccc(-c2ccc(C(=O)N(C)Cc3ccc(OC)cc3)nc2)c1OC [Compound 94] | 500 to 5000 | 0.01 to 10 | 500 to 5000
CNC(=O)c1nnc(NC(=O)C2CC2)cc1Nc1cccc(-c2ccc(C(=O)N(C)Cc3ccc(F)cc3)cc2)c1OC [Compound 95] | 5000 to 100000 | 10 to 50 | 5000 to 100000
CCn1cncc1CN(C)C(=O)c1ccc(-c2cccc(Nc3cc(NC(=O)C4CC4)nnc3C(=O)NC)c2OC)cn1 [Compound 96] | 500 to 5000 | 0.01 to 10 | 500 to 5000
CNC(=O)c1nnc(NC(=O)C2CC2)cc1Nc1cccc(-c2cnc(C(=O)N(C)Cc3ccon3)c(F)c2)c1OC [Compound 98] | 5000 to 100000 | 0.01 to 10 | 500 to 5000
CNC(=O)c1nnc(NC(=O)C2CC2)cc1Nc1cccc(-c2ccc(C(=O)N(C)Cc3ccon3)nc2)c1OC [Compound 99] | 5000 to 100000 | 0.01 to 10 | 500 to 5000
CNC(=O)c1nnc(NC(=O)C2CC2)cc1Nc1cccc(-c2ccc(C(=O)N(C)Cc3cn(C)nn3)nc2)c1OC [Compound 100] | 500 to 5000 | 0.01 to 10 | 500 to 5000
CNC(=O)c1nnc(NC(=O)C2CC2)cc1Nc1cccc(-c2ccc(C(=O)N(C)Cc3nc(C)no3)nc2)c1OC [Compound 102] | 500 to 5000 | 0.01 to 10 | 500 to 5000
CNC(=O)c1nnc(NC(=O)C2CC2)cc1Nc1ccc(C)c(-c2ccc(C(=O)N(C)Cc3cc(C#N)ccn3)cc2)c1OC [Compound 103] | 500 to 5000 | 0.01 to 10 | 50 to 500
CNC(=O)c1nnc(NC(=O)C2CC2)cc1Nc1cccc(-c2cnn(C3CN(Cc4ncn(C)n4)C3)c2)c1OC [Compound 104] | 500 to 5000 | 0.01 to 10 | 500 to 5000
CNC(=O)c1nnc(NC(=O)C2CC2)cc1Nc1cccc(-c2ccc(C(=O)N3CCc4cccnc4C3)nc2)c1OC [Compound 108] | 5000 to 100000 | 10 to 50 | 5000 to 100000

Results, then the compound that gave them:

IC50 [1] [nM] | Kd [2] [nM] | IC50 [3] [nM] | SMILES
500 to 5000 | 0.01 to 10 | 500 to 5000 | [2H]C([2H])([2H])NC(=O)c1nnc(NC(=O)C2CC2)cc1Nc1cccc(-c2cnc(C(=O)N(C)Cc3ccn(C)n3)nc2)c1OC [Compound 62]
500 to 5000 | 0.01 to 10 | 500 to 5000 | [2H]C([2H])([2H])NC(=O)c1nnc(NC(=O)C2CC2)cc1Nc1cccc(-c2cnc(C(=O)N(Cc3ccn(C)n3)C([2H])([2H])[2H])nc2)c1OC [Compound 63]
50 to 500 | 0.01 to 10 | 500 to 5000 | CNC(=O)c1nnc(NC(=O)C2CC2)cc1Nc1cccc(-c2cnc(C(=O)N(C)Cc3cn(C)nc3C(F)(F)F)nc2)c1OC [Compound 64]
500 to 5000 | 0.01 to 10 | 500 to 5000 | CNC(=O)c1nnc(NC(=O)C2CC2)cc1Nc1ccc(C)c(-c2cnn(C3CN(Cc4ccccn4)C3)c2)c1OC [Compound 67]
500 to 5000 | 0.01 to 10 | 500 to 5000 | CNC(=O)c1nnc(NC(=O)C2CC2)cc1Nc1cccc(-c2cnn(C3CN(Cc4ncccc4F)C3)c2)c1OC [Compound 69]
500 to 5000 | 0.01 to 10 | 500 to 5000 | CNC(=O)c1nnc(NC(=O)C2CC2)cc1Nc1cccc(-c2cnn(C3CN(Cc4ncccn4)C3)c2)c1OC [Compound 70]
50 to 500 | 0.01 to 10 | 50 to 500 | CNC(=O)c1nnc(NC(=O)C2CC2)cc1Nc1cccc(-c2ccc(C(=O)N(C)Cc3cc(C#N)n(C)n3)nc2)c1OC [Compound 71]
50 to 500 | 0.01 to 10 | 50 to 500 | CNC(=O)c1nnc(NC(=O)C2CC2)cc1Nc1cccc(-c2ccc(C(=O)N(C)Cc3cc(S(C)(=O)=O)ccn3)nc2)c1OC [Compound 72]
50 to 500 | 0.01 to 10 | 50 to 500 | CNC(=O)c1nnc(NC(=O)C2CC2)cc1Nc1cccc(-c2ccc(C(=O)N(C)Cc3cc(S(C)(=O)=O)ccn3)cc2)c1OC [Compound 73]
50 to 500 | 0.01 to 10 | 50 to 500 | [2H]C([2H])([2H])NC(=O)c1nnc(NC(=O)C2CC2)cc1Nc1cccc(-c2ccc(C(=O)N(Cc3cc(C#N)ccn3)C([2H])([2H])[2H])nc2)c1OC [Compound 74]
500 to 5000 | 0.01 to 10 | 500 to 5000 | CNC(=O)c1nnc(NC(=O)C2CC2)cc1Nc1cccc(-c2ccc(C(=O)N(C)Cc3cn(C)nc3C(F)(F)F)nn2)c1OC [Compound 75]
500 to 5000 | 0.01 to 10 | 500 to 5000 | CNC(=O)c1nnc(NC(=O)C2CC2)cc1Nc1cccc(-c2ccc(C(=O)N(C)Cc3ccn(C)n3)nn2)c1OC [Compound 76]
500 to 5000 | 0.01 to 10 | 50 to 500 | CNC(=O)c1nnc(NC(=O)C2CC2)cc1Nc1cccc(-c2cnn(C3CN(Cc4nccc(C)n4)C3)c2)c1OC [Compound 77]
500 to 5000 | 0.01 to 10 | 500 to 5000 | CNC(=O)c1nnc(NC(=O)C2CC2)cc1Nc1cccc(-c2cnn(C3CN(Cc4nccc(OC)n4)C3)c2)c1OC [Compound 78]
500 to 5000 | 0.01 to 10 | 50 to 500 | [2H]C([2H])([2H])NC(=O)c1nnc(NC(=O)C2CC2)cc1Nc1cccc(-c2ccc(C(=O)N(C)Cc3ccn(C)n3)nc2)c1OC [Compound 79]
500 to 5000 | 0.01 to 10 | 50 to 500 | CNC(=O)c1nnc(NC(=O)C2CC2)cc1Nc1cccc(-c2ccc(C(=O)N(C)Cc3cccc(OC(F)F)c3)nc2)c1OC [Compound 80]
50 to 500 | 0.01 to 10 | 50 to 500 | CNC(=O)c1nnc(NC(=O)C2CC2)cc1Nc1cccc(-c2cnn(C3CN(Cc4cccnc4)C3)c2)c1OC [Compound 89]
50 to 500 | 0.01 to 10 | 50 to 500 | CNC(=O)c1nnc(NC(=O)C2CC2)cc1Nc1cc(F)cc(-c2ccc(C(=O)N(C)Cc3ccn(C)n3)nc2)c1OC [Compound 97]
50 to 500 | 0.01 to 10 | 50 to 500 | CNC(=O)c1nnc(NC(=O)C2CC2)cc1Nc1cccc(-c2ccc(C(=O)N(C)Cc3cn(C)nc3C)nc2)c1OC [Compound 101]
50 to 500 | 0.01 to 10 | 50 to 500 | [2H]C([2H])([2H])NC(=O)c1nnc(NC(=O)C2CC2)cc1Nc1cccc(-c2cnn(C3CN(Cc4ccccn4)C3)c2)c1OC [Compound 105]
50 to 500 | 0.01 to 10 | 50 to 500 | CNC(=O)c1nnc(NC(=O)C2CC2)cc1Nc1cccc(-c2cnn(C3CN(Cc4cccc(C)n4)C3)c2)c1OC [Compound 106]
50 to 500 | 0.01 to 10 | 50 to 500 | CNC(=O)c1nnc(NC(=O)C2CC2)cc1Nc1cccc(-c2cnn(C3CN(Cc4cccc(OC)n4)C3)c2)c1OC [Compound 107]
